The values below are quoted from earlier work in US20080226713A1, “Controlled Release Pharmaceutical Compositions of Tolperisone for Oral Administration” (priority 2004, published 2008).

Like-named read-outs stand apart in the source and are kept apart here.

For data set [1] the following is noted: JP-A-53-40779.
For data set [2] the following is noted: rat.

As for `Cc1ccc(C(=O)C(C)CN2CCCCC2)cc1` (stereo not drawn) [R(−)tolperisone], the pharmacological effect result in data set [1] (listed as R-tolperisone) is reported as “muscle-relaxing effect”.

In the case of `Cc1ccc(C(=O)C(C)CN2CCCCC2)cc1` (stereo not drawn) [S(+)tolperisone], the pharmacological effect result in data set [1] (listed as S-tolperisone) was “vaso- or bronchodilatory effect”. The “extent of in-vivo inversion into the other enantiomer” value in data set [2] is on record as “up to 20%”.
